Experimental data published in US20080318892A1, “METHODS AND FORMULATIONS FOR PROTECTING CELLS, AND FOR TREATING DISEASES AND CONDITIONS BY OPTIMIZING THE INTRACELLULAR CONCENTRATION OF NAD” (priority 2007, published 2008).

Assays:
HITB5 SMC's [1] = assay: Apoptosis by TUNEL; assay type: cell-based, human; conditions: PBEF-overexpressing HITB5 SMCs; p<0.01
Procedure: (§1) Cell Proliferation, DNA Synthesis, and Apoptosis were also evaluated. To assess SMC proliferation, cells were plated at a density of 3000 cells per cm^2 and cultured in M199 containing 5% FBS. Triplicate wells were harvested at the designated times and counted using a hemacytometer. To quantify DNA synthesis, cells in log-phase growth were incubated for 12 hours with [^3H]thymidine (10 μCi/mL) and TCA-precipitable counts determined as described (5). Thymidine incorporation was expressed relative to DNA content, quantified by spectrofluorimetry of an aliquot of cell lysate incubated with 500 μg/ml Hoechst 33258. Apoptosis was assessed in SMCs seeded on glass coverslips by in situ end-labeling of DNA fragments using terminal deoxynucleotide transferase and fluorescein 12-dUTP (Promega) (5). Cells were fixed with 4% paraformaldehyde and counterstained with Hoechst 33258.

Nampt = molecular target: T1, Nampt (Homo sapiens, UniProt P43490); assay: Nicotinamide phosphoribosyltransferase (Nampt/PBEF) activity in SMC lysates, [14C]nicotinamide to NMN; assay type: cell-based; conditions: human Nampt cDNA by retrovirus
T1 construct: endogenous in cells; host or cells: human vascular SMCs (primary and HITC6), whole cell lysates
Procedure: Nicotinamide Phosphoribosyltransferase Activity. […] Labelled acetone-precipitable nicotinamide mononucleotide was quantified by scintillation counting.
Assessment of Nicotinamide Phosphoribosyltransferase Activity. […] Briefly, SMCs were lysed in buffer containing 10 mM NaH2PO4/Na2HPO4, at pH 8.8. Cell lysates were incubated with 0.5 μM [carbonyl-^14C]nicotinamide and 0.5 mM phosphoribosylpyrophosphate for 4 h on a rotating rocker at 37° C.

HITB5 SMC's [2] = assay: SMC proliferation (cell accumulation over 11 days); assay type: cell-based, human; conditions: PBEF-overexpressing HITB5 SMCs, 5% serum, p<0.01 vs EGFP control
Procedure: as §1

[3] = test system: primary human vascular SMCs; assay: Replicative lifespan (cumulative population doublings) of primary SMCs; assay type: cell-based; conditions: primary adult SMCs overexpressing Nampt
[4] = test system: fibroblasts derived from a subject with HGPS; assay: Replicative lifespan of HGPS fibroblasts; assay type: cell-based, human; conditions: HGPS fibroblasts transduced with Nampt cDNA
Procedure: Cell Culture. Experiments were performed using primary human vascular SMCs derived by outgrowth from fragments of internal thoracic artery and the HITC6 SMC clonal line, also originally generated from the human internal thoracic artery (Li, 2001). Derman fibroblasts from an individual with Hutchinson-Gilford Progeria Syndrome (HGPS) were obtained from Coreill Cell Repository.
(§2) To quantify replication, cells were plated at 4500 cells/cm^2 and growth medium with 10% FBS was changed every two days until cells reached 90-95% confluence. Harvested cells were counted from triplicate plates and the number of population doublings was calculated based on: [log10(number of cells harvested)−log10(number of cells seeded)]/[…] (Fukuhara, 2005). Population growth curves were compared using both nonlinear regression and two-way analysis of variance.

HITB5 SMC's [5] = assay: DNA synthesis ([3H]thymidine incorporation); assay type: cell-based, human; conditions: PBEF-overexpressing HITB5 SMCs
Procedure: as §1

HITC6 SMCs = assay: Replicative lifespan (cumulative population doublings) of HITC6 SMCs; assay type: cell-based, human
Procedure: as §2
Cell Culture. Experiments were performed using primary human SMCs and the HITC6 clonal SMC line, both derived from segments of human internal thoracic artery (Li et al., 1999; Li et al., 2001). SMCs were maintained at 37° C. with 5% CO2 and cultured in Medium 199 (Invitrogen, Carlsbad, Calif., USA) supplemented with 25 mM HEPES, 10% FBS, 1% penicillin/streptomycin, and 1% L-glutamine. Phoenix cells (distributed by ATCC, Manassas, Va., USA) were maintained at 37° C. with 5% CO2 and cultured in Dulbecco's modified Eagle's medium (Invitrogen, Carlsbad, Calif., USA). To quantify replication, cells were seeded at a density of 4500 cells/cm2 and population doublings were calculated using the following formula: […].

SIRT1 = assay: Western blot of SIRT1 protein expression in SMCs; assay type: cell-based, human; conditions: PBEF overexpression; p=0.02
Procedure: Western Blot and Immunoprecipitation Analysis. Protein expression was assessed by Western blot analysis with chemiluminescence detection, as previously described (Rocnik, 2002). PBEF was detected using a rabbit polyclonal anti-human PBEF/Pre-B-cell colony enhancing factor antibody (Bethyl Laboratories, Montgomery, Tex.). SIRT1 was detected using a rabbit polyclonal anti-SIRT1 antibody (Abcam, Cambridge, Mass.) and p53 and α-tubulin were detected with monoclonal antibodies (CO-1, Santa Cruz, Calif. and Clone B-5-1-1, Sigma, Oakville, ON, respectively). Cytoplasmic p53 was similarly assessed following cell fractionation (NucBuster, Novagen Minneapolis, Minn.). Identification of p53 that underwent NAD^+-dependent removal of an acetyl group on residue K382 was determined by pretreating SMCs for 2 h with 5 μM trichostatin A (TSA), immunoprecipitating p53 from the cell lysate with a goat polyclonal antibody (R&D Systems, Minneapolis, Minn.), and immunoblotting using a rabbit polyclonal anti-acetylated p53 (K382) antibody (American Proteomics, Carlsbad, Calif.) and HRP-labelled donkey anti-rabbit IgG antibody (Amersham, Piscataway, N.J.).
Western Blot Analysis. Protein expression was assessed by Western blot analysis of confluent cultured SMCs, as previously described (Rocnik et al., 2002). […] Signal was detected by chemiluminescence (Pierce, Rockford, Ill., USA).

T1 sequence (P43490 whole entry): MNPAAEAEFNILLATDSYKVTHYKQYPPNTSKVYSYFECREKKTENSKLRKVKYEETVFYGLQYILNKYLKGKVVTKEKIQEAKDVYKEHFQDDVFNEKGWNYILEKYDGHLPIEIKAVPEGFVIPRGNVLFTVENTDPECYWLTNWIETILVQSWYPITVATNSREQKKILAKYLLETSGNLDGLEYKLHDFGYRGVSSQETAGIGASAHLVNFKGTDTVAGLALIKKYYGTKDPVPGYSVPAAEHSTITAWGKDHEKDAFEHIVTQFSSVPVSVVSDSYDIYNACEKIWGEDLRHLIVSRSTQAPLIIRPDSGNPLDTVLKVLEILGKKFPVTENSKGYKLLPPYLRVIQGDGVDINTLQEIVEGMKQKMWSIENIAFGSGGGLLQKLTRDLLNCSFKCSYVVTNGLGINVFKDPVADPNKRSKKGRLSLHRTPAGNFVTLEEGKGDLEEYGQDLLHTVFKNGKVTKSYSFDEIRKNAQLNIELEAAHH

PBEF: 52-55 kD protein, rate-limiting enzyme for NAD+ biosynthesis from nicotinamide; tested by retroviral cDNA overexpression in cells
proportion of apoptotic SMC's relative to HITB5-EGFP SMC's (HITB5 SMC's [1]): approximately half
increase in Nampt activity in stably transduced SMCs (Nampt): 7.1±3.1 fold
doubling time (HITB5 SMC's [2]): 5.4 days
additional population doublings beyond vector-infected SMCs [3]: 2.1±0.3 population doublings
prolongation of lifespan ([3]; p=0.01): 34±4%
cell lifespan extension [4]: also seen
thymidine incorporation vs control cells (HITB5 SMC's [5]): no detectable difference
additional population doublings (HITC6 SMCs; HITC6 SMCs overexpressing Nampt): 6.3±0.3 population doublings
extension of lifespan (HITC6 SMCs; HITC6 SMCs overexpressing Nampt, p=0.003): 71±7%
additional population doublings conferred by Nampt (HITC6 SMCs; double-transduction experiment, Nampt without SIRT1 H363Y): 5.4±0.5 population doublings
abundance of SIRT1 protein (SIRT1): 1.3±0.3 fold
